Measured values published in ChEMBL document CHEMBL5260809, “Isoxazole ring as a useful scaffold in a search for new therapeutic agents” (Eur J Med Chem, 2017).
≈ marks a conversion by molar mass, not a printed value.

Columns and labels:
MDA-MB-231 = test: Antimigratory activity against human MDA-MB-231 cells; format: functional, cell-based
[1] = Induction of sodium-22 influx in human TE-671 cells; format: functional, cell-based
Rattus norvegicus [2] = species on record: Rattus norvegicus; test: Protective index, ratio of TD50 for rat to ED50 for anticonvulsant activity in rat; format: functional
Rattus norvegicus [3] = species on record: Rattus norvegicus; test: Anticonvulsant activity in rat maximal electroshock seizure model; format: functional
[4] = Toxicity in rat; conditions: in vivo
[5] = Selectivity index, ratio of CC50 for human HeLa cells to IC50 for Coxsackievirus B3 isolate 97-927; format: toxicity; conditions: read-out: Ratio CC50/IC50
[6] = Selectivity index, ratio of CC50 for human HeLa cells to IC50 for Human rhinovirus 2; format: toxicity; conditions: read-out: Ratio CC50/IC50
Escherichia coli = test: Antibacterial activity against Escherichia coli assessed as zone of inhibition at 50 ug/ml by agar disc diffusion method; format: functional; conditions: read-out: IZ
Staphylococcus aureus = test: Antibacterial activity against Staphylococcus aureus assessed as zone of inhibition at 50 ug/ml by agar disc diffusion method; format: functional; conditions: read-out: IZ
[7] = target: T1, Muscarinic acetylcholine receptor M1 (Rattus norvegicus, UniProt P08482); test: Agonist activity at rat M1 muscarinic receptor
T1 sequence (P08482 whole entry): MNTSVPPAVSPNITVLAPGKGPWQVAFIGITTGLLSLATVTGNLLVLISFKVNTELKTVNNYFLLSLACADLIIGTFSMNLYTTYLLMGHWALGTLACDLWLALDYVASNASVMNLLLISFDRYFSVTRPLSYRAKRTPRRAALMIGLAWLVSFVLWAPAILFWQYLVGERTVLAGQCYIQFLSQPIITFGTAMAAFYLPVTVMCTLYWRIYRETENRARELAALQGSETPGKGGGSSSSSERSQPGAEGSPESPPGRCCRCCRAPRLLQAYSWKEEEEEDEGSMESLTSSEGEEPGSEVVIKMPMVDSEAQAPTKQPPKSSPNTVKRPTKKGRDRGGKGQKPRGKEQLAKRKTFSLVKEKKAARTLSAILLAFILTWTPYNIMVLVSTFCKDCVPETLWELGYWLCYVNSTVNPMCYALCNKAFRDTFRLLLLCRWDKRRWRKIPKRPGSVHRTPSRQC

[8] = target: T2, Muscarinic acetylcholine receptor M2 (Rattus norvegicus, UniProt P10980); test: Agonist activity at rat M2 muscarinic receptor
T2 sequence (P10980 whole entry): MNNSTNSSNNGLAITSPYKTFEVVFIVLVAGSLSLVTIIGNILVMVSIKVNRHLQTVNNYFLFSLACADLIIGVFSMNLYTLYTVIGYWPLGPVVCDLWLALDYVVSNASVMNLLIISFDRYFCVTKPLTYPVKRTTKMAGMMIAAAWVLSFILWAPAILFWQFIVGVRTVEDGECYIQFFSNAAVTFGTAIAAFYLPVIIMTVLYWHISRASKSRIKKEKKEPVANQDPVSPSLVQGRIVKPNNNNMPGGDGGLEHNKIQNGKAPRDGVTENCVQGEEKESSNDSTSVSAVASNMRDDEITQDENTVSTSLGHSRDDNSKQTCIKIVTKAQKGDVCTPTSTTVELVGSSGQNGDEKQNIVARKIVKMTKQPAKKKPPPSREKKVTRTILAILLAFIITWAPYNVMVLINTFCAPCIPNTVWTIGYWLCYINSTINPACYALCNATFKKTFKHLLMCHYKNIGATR

Coxsackievirus B3 = test: Antiviral activity against Coxsackievirus B3; format: functional, organism-based; conditions: Enterovirus B
[9] = tested on: Human immunodeficiency virus 1; test: Antiviral activity against HIV-1 assessed as reduction in multinucleated cells production at 25 ug/ml; format: functional; set-up: scale not given: the % may be the effect or the level left; conditions: dose 25 µg/ml
Mus musculus = species on record: Mus musculus; test: Antithrombotic activity in Swiss mouse model of collagen and adrenaline-induced thrombosis assessed as increase in bleeding time; format: functional

With CCc1cc(-c2oncc2-c2ccc(OC)cc2)c(O)cc1OC as the compound, how does the IC50 (MDA-MB-231) read?
Its IC50 is 150 nM.

For Cc1cc(C2CC3CCC2N3)on1 (stereo not given), which EC50 [1] is on record?
The EC50 was 2600 nM.

Which Ratio (Rattus norvegicus [2]) does the source give for Cc1cc(NC2=CC(=O)C(C(=O)OC(C)(C)C)C(C)C2)no1 (stereo not given) here?
The Ratio was over 49.6.

For Cc1cc(C(=O)Nc2c(C)cccc2C)no1, which ED50 (Rattus norvegicus [3]) is on record?
The ED50 was 5.5 mg/kg.

And the TD50 [4]?
The TD50 was over 500 mg/kg.

Which EC50 [1] does the source give for Clc1ccc([C@H]2CC3CCC2N3)cn1 (stereo not given in full) here?
Its EC50 is 520 nM.

With Cc1cc(CCCOc2ccc(-c3ccccc3C)cc2)on1 as the compound, how does the selectivity ratio [5] read?
Its selectivity ratio is 2.6.

And the selectivity ratio [6]?
Its selectivity ratio is 57.5.

Which zone of inhibition at 50 µg/mL (Escherichia coli) does the source give for CCOC(=O)C1C(c2c(OCc3ccccc3)c(Br)cc3c(Cl)c(Cl)c(=O)oc23)=NOC1c1ccc(C(F)(F)F)cc1 (stereo not given) here?
Its zone of inhibition at 50 µg/mL is 20 mm.

What about the zone of inhibition at 50 µg/mL (Staphylococcus aureus) of the same compound?
Its zone of inhibition at 50 µg/mL is 24 mm.

With CCc1cc(-c2oncc2-c2ccc(Br)cc2)c(O)cc1OC as the compound, how does the IC50 (MDA-MB-231) read?
Its IC50 is 50 nM.

What does the source list for Cc1cc(CCCOc2ccc(-c3cccc(F)c3)cc2)on1?
selectivity ratio [5]: 2.9; selectivity ratio [6]: 230

With Cc1cc(NC(=O)c2c(C)cccc2C)on1 as the compound, how does the ED50 (Rattus norvegicus [3]) read?
The ED50 was 8.9 mg/kg.

And the TD50 [4]?
Its TD50 is over 500 mg/kg.

Which results are given for C#CCOc1noc2c1CNCCC2C (stereo not given)?
EC50 [7]: 1300 nM; EC50 [8]: > 51000 nM

Which results are given for Cc1cc(CCCOc2ccc(-c3ccc(F)cc3)cc2)on1?
selectivity ratio [5]: > 37.3; selectivity ratio [6]: > 5560

Which EC50 (Coxsackievirus B3) does the source give for Cc1cn(Cc2cc([C@@H](Cc3ccccc3)NC(=O)OC(C)(C)C)no2)c(=O)n(C(=O)c2ccccc2)c1=O here?
Its EC50 is 10.6 µg/mL (≈ 20 µM).

For O=C(CBr)c1cc(-c2ccccc2)no1, which Activity [9] is on record?
Its Activity is 95%.

With N#Cc1ccc(CN(Cc2cc(-c3ccccc3Cl)on2)C(CCCNC(=N)N)C(N)=O)cc1 (stereo not given) as the compound, how does the Activity (Mus musculus) read?
The Activity was 87.5%.

Which zone of inhibition at 50 µg/mL (Escherichia coli) does the source give for O=C(N[C@H](CO)[C@H](O)c1ccc([N+](=O)[O-])cc1)C(Cl)Cl [CHLORAMPHENICOL] here?
Its zone of inhibition at 50 µg/mL is 21 mm.

What about the zone of inhibition at 50 µg/mL (Staphylococcus aureus) of the same compound?
The zone of inhibition at 50 µg/mL was 23 mm.

With NC(=O)c1ncn([C@@H]2O[C@H](CO)[C@@H](O)[C@H]2O)n1 [RIBAVIRIN] as the compound, how does the EC50 (Coxsackievirus B3) read?
The EC50 was 92.5 µg/mL (≈ 379 µM).
